The record followed here is patent publication US20140057915A1, “KINASE INHIBITORS” (TOPIVERT PHARMA LIMITED, priority 2012, published 2014).

The test system of one data set is BDF1 mice. Nature of the data set: TNBS-induced colitis in mice. The conditions noted are these: TNBS; 2.5 mg/kg; 2 days. The format is in vivo, mouse. As for the experimental part: (C) TNBS-Induced Colitis in Mice […] On Day 0 of the study TNBS (200 μL) is administered intra-colonically via a plastic catheter followed by BID dosing of the vehicle, reference or test compound for 2 or 4 days. During the study animals are weighed every day and stool observations are made and recorded as a score, based on stool consistency. At the time of sacrifice on Day 2 (or Day 4) the large intestine is removed and the length and weight recorded. Sections of the colon are taken for either MPO analysis to determine neutrophil infiltration or for histopathology involving scoring to determine disease severity.

The target of the next data set is cSrc (Homo sapiens, UniProt P12931). Nature of the data set: c-Src enzyme inhibition (FRET). The class given is biochemical. In short, it runs like this: (§1)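 Enzyme was preincubated with test compound (added as 4, 0.4, 0.04 or 0.004 μg/mL solutions) for 2 hr at RT. FRET peptide (8 μM solution) and ATP solution (800 μM for c-Src, 60 μM for Syk) were then added for 1 hr, followed by 1 hr protease development.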
Sequence of cSrc (P12931 whole entry): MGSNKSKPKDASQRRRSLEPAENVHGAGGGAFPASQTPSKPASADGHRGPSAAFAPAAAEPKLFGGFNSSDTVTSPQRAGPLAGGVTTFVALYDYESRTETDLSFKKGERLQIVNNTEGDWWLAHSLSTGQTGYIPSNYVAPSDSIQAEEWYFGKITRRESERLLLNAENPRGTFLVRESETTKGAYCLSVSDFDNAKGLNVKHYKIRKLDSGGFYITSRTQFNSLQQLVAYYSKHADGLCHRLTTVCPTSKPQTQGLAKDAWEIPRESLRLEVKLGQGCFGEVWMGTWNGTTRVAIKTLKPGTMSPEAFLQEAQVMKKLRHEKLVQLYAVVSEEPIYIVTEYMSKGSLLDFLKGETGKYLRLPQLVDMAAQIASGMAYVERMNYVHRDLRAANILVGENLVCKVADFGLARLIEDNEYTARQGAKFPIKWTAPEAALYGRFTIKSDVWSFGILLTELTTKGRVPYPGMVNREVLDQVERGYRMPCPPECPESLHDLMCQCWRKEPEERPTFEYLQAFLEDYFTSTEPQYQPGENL

The subject of data set [1] is ICAM-1 expression, BEAS2B cells. Nature of the data set: Poly I:C-induced ICAM-1 expression in BEAS2B cells. The format is cell-based. The conditions noted are these: Homo sapiens, BEAS-2B; read-out: Poly IC induced ICAM1 in BEAS2B, IC50. In short, it runs like this:
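Cell-based ELISA for surface ICAM-1 in human BEAS2B cells 18 h after transfection with the RNA-virus mimic poly I:C (1 μg/mL, with Oligofectamine), compounds added 2 h beforehand. OD450–655 divided by Crystal Violet OD595 per well; percent inhibition relative to vehicle.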

The subject of a further data set is HRV16 in MRC5 cells. Nature of the data set: HRV16 induced CPE in MRC5 cells. The class given is cell-based. Conditions: Human rhinovirus sp., HRV-16. The method, then: (j) Assessment of HRV16 Induced CPE in MRC5 Cells
MRC-5 cells are infected with HRV16 at an MOI of 1n DMEM containing 5% FCS and 1.5 mM magnesium chloride, followed by incubation for 1 hr at 33° C. to promote adsorption. The supernatants are aspirated, and then fresh media added followed by incubation for 4 days. Where appropriate, cells are pre-incubated with compound or DMSO for 2 hr, and the compounds and DMSO added again after washout of the virus.
After washing, 1% SDS in distilled water (100 μL) is added to each well, and the plates are shaken lightly for 1-2 hr prior to reading the absorbance at 660 nm. The percentage inhibition for each well is calculated. The IC50 value is calculated from the concentration-response curve generated by the serial dilutions of the test compounds.

In data set [2] the test system is IL-8 release, d-U937 cells. Nature of the data set: LPS-induced IL-8 release in d-U937 cells. The format is cell-based. The conditions noted are these: Homo sapiens, dU937; Table 4c1; read-out: LPS Induced Release of Cytokine in d-U937 Cells, IL-8 IC50. An outline of the steps:
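IL-8 release after a 4 hr challenge with LPS (0.1 μg/mL, E. coli 0111:B4) following a 2 hr compound pretreatment. Cells were human U937 monocytes differentiated to macrophage-type with PMA 100 ng/mL for 48–72 hr. Relative 50% effective concentration derived from concentration–response data.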

Data set [3] addresses T1, GSK3α (Homo sapiens, UniProt P49840). Nature of the data set: GSK 3α enzyme inhibition (FRET), Method 1. The class given is biochemical. Conditions: Table 4a1. An outline of the steps: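 GSK3α was preincubated with test compound for 2 hr at RT, then a FRET peptide substrate and ATP were added for 1 hr. Protease development for 1 hr cleaved only non-phosphorylated peptide, and phosphorylation was read as the coumarin/fluorescein emission ratio. Concentrations given are those of the added solutions: enzyme 500 ng/mL, peptide 8 μM, ATP 40 μM.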

Data set [4] relates to TNFα release, d-U937 cells. Nature of the data set: LPS-induced TNFα release in d-U937 cells. The class given is cell-based. The conditions noted are these: Homo sapiens, dU937; relative to 10 μg/mL BIRB796; Table 4c1; read-out: LPS Induced Release of Cytokine in d-U937 Cells, TNFα REC50. In short, it runs like this: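 Sandwich ELISA quantifies cytokine in supernatants after 4 hr LPS challenge (0.1 μg/mL) of PMA-differentiated (100 ng/mL, 48–72 hr) U937 macrophages given compound 2 hr beforehand. REC50 derived from concentration-response curve, inhibition calculated relative to vehicle.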

Another data set relates to d-U937 cells. Nature of the data set: Cell viability: MTT assay. The format is cell-based, human. Conditions: 1 μg/mL. In short, it runs like this:
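MTT reduction (1 h, DMSO solubilisation, A550) measured after compound treatment at 1 or 10 μg/mL of differentiated U937 cells for 4 h (5% FCS RPMI1640) or 24 h (10% FCS). Percentage viability loss computed relative to 0.5% DMSO vehicle, with increases tabulated as negative values.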
For orientation: Tetrazolium dyes change colour on reduction, which living cells bring about.

For the next data set, the target named is Syk (Homo sapiens, UniProt P43405). Nature of the data set: Syk enzyme inhibition (FRET). The class given is biochemical. An outline of the steps: as §1
In another data set the test system is IL-8 release, HT29 cells. Nature of the data set: IL-1β-induced IL-8 release in HT29 cells. The conditions noted are these: Homo sapiens, HT-29; IL-1β stimulated; read-out: IC50 Values for Inhibition of Cytokine Release, HT29 cells, IL-8. The class given is cell-based. As for the experimental part: (d) IL-1β-Induced IL-8 Release in HT29 Cells
HT29 cells, a human colon adenocarcinoma cell line, are plated in a 96 well plate (24 hrs) and pre-treated with compounds at the desired concentration for 2 hours before addition of 5 ng/ml of IL-1β (Abeam) for 24 hours, Supernatants are harvested for IL-8 quantification by Sandwich ELISA (Duo-set, R&D System). The IC50 is determined from the dose response curve.

The test system of a further data set is PBMC cells. Nature of the data set: Cell mitosis assay. The class given is cell-based. The conditions noted are these: Homo sapiens, read-out: % Inhibition of mitosis in PBMC cells at 5 μg/mL. As for the experimental part: PBMCs from healthy subjects are separated from whole blood (Quintiles, London, UK) using a density gradient (Histopaque®-1077, Sigma-Aldrich, Poole, UK). The PBMCs (3 million cells per sample) are subsequently treated with 2% PHA (Sigma-Aldrich, Poole, UK) for 48 hr, followed by a 20 hr exposure to varying concentrations of test compounds. At 2 hr before collection, PBMCs are treated with demecolcine (0.1 μg/mL; Invitrogen, Paisley, UK) to arrest cells in metaphase. […] Fluorescence is observed using an ATTUNE flow cytometer (Invitrogen, Paisley, UK), gating for lymphocytes.

The subject of a further data set is IL-8 release, PBMCs. Nature of the data set: LPS-induced IL-8 release in PBMC cells. Conditions: Homo sapiens, LPS stimulated, read-out: IC50 Values for Inhibition of Cytokine Release, PBMCs, IL-8. The format is cell-based. In short, it runs like this: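 PBMCs from healthy donors pretreated with compound for 2 h, then stimulated with 1 ng/ml LPS (E. coli 0111:B4) for 24 h at 37 °C, 5% CO2. Supernatant IL-8 and TNFα measured by sandwich ELISA with fluorescence read-out.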

Data set [5] addresses T1, GSK3α. Nature of the data set: GSK 3α enzyme inhibition (FRET), Method 2. The format is biochemical. Conditions: Table 4a2, different laboratory.
A further data set deals with IL-2 release, PBMCs. Nature of the data set: IL-2 release in CD3/CD28 stimulated PBMC cells. The format is cell-based. The conditions noted are these: Homo sapiens, read-out: IC50 Values for Inhibition of Cytokine Release, PBMCs, IL-2. The method, then: (§2) (c) IL-2 and IFN Gamma Release in CD3/CD28 Stimulated PBMC Cells
(§3) PBMCs from healthy subjects are separated from whole blood using a density gradient (Lymphoprep, Axis-Shield Healthcare). Cells are added to a 96 well plate pre-coated with a mixture of […] monoclonal antibodies (0.3 ug/ml eBioscience and 3 ug/ml BD Pharmingen respectively). Compound at the desired concentration is then added to the wells and the plate left for 3 days under normal tissue culture conditions. Supernatants are harvested and IL-2 and IFN gamma release determined by Sandwich ELISA (Duo-set, R&D System). The IC50 is determined from the dose response curve.

For a further data set, the system named is IFN gamma release, PBMCs. Nature of the data set: IFN gamma release in CD3/CD28 stimulated PBMC cells. The conditions noted are these: Homo sapiens, read-out: IC50 Values for Inhibition of Cytokine Release, PBMCs, IFNγ. The format is cell-based. The method, then:
as §2, §3

The mark [6] stands for this setting: Table 4a2, different laboratory.

A word on the pIC50: it is −log10 of the IC50, conventionally taken in molar units.

Structures are written as SMILES. pEC50, pIC50: −log10 of the molar value.

T1 sequence (P49840 whole entry): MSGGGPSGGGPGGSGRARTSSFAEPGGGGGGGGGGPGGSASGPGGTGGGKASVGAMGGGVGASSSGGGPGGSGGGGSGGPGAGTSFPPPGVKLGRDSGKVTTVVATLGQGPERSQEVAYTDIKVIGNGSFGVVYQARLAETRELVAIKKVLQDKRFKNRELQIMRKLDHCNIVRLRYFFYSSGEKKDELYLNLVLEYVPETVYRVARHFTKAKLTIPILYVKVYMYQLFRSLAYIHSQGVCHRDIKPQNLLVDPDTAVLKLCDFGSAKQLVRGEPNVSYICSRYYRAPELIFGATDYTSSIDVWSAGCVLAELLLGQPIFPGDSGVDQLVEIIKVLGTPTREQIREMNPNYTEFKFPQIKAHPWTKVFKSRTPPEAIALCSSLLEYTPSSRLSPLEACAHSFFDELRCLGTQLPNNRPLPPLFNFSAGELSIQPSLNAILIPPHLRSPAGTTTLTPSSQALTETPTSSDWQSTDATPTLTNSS

As for `CCCC1O[C@@H]2C[C@H]3[C@@H]4CCC5=CC(=O)C=C[C@]5(C)[C@H]4[C@@H](O)C[C@]3(C)[C@]2(C(=O)CO)O1` (stereo partly drawn) [Budesonide, reference compound], in the data set on BDF1 mice, the LP inflammation turned out to be 2.5 ± 0.4 and the Ulcer grade is 2.9 ± 0.6.
Consider `Cc1ccc(-n2nc(C(C)(C)C)cc2NC(=O)Nc2ccc(Oc3ccnc(Nc4cc(C)cc(C(N)=O)c4)n3)c3ccccc23)cc1` [Example 40, 3-((4-((4-(3-(3-(tert-butyl)-1-(p-tolyl)-1H-pyrazol-5-yl)ureido)naphthalen-1-yl)oxy)pyrimidin-2-yl)amino)-5-methylbenzamide], for which the pIC50 was 8.52 at cSrc (Table 4a1); 9.15 in [1]; 8.54 in the data set with HRV16 in MRC5 cells; 8.66 in data set [2]; 5.87 against GSK3α [3]; 8.05 at Syk (Table 4a1). For the same molecule, in data set [4], the pEC50 was 9.70. Also, the “Cell viability at time point in d-U937 cells, 4 h” value in the data set on d-U937 cells (4 h) is “−ve (−ve and +ve indicate that the value is below and above respectively, the no significant effect threshold, defined as 30% inhibition at 1 μg/mL at the time point indicated)”. Further, the “Cell viability at time point in d-U937 cells, 24 h” value with d-U937 cells (24 h) is “−ve (−ve and +ve indicate that the value is below and above respectively, the no significant effect threshold, defined as 30% inhibition at 1 μg/mL at the time point indicated)”.
For the molecule `C#Cc1cc(Nc2nccc(Oc3ccc(NC(=O)Nc4cc(C(C)(C)C(F)(F)F)nn4-c4ccc(C)cc4)c4ccccc34)n2)cc(C(=O)NCCN2CCOCC2)c1` [Example 76, 3-Ethynyl-N-(2-morpholinoethyl)-5-((4-((4-(3-(1-(p-tolyl)-3-(1,1,1-trifluoro-2-methylpropan-2-yl)-1H-pyrazol-5-yl)ureido)naphthalen-1-yl)oxy)pyrimidin-2-yl)amino)-benzamide], the negative logarithm of the IC50 (pIC50) was 8.52 in the data set with IL-8 release, HT29 cells; 8.68 with IL-8 release, PBMCs; 5.75 on GSK3α [5]; 7.35 on cSrc (setting [6]); 6.73 in the data set with IL-2 release, PBMCs; 8.74 with IFN gamma release, PBMCs. The same molecule showed a pIC50 against Syk (setting [6]) of 7.47. Besides, the inhibition at 5 µg/mL with PBMC cells was 23%.
In the case of `C#Cc1cc(Nc2nccc(Oc3ccc(NC(=O)Nc4cc(C(C)(C)C)nn4-c4ccc(C)cc4)c4ccccc34)n2)cc(C(=O)N[C@H](C)CN2CCOCC2)c1` [Example 83, (R)-3-((4-((4-(3-(3-(tert-Butyl)-1-(p-tolyl)-1H-pyrazol-5-yl)ureido)naphthalen-1-yl)oxy)pyrimidin-2-yl)amino)-5-ethynyl-N-(1-morpholinopropan-2-yl)benzamide], the pIC50 is 8.28 with IL-8 release, HT29 cells; 8.42 with IL-8 release, PBMCs; 4.93 on GSK3α [5]; 7.59 against cSrc (setting [6]); 6.91 with IL-2 release, PBMCs; 8.74 with IFN gamma release, PBMCs. Besides, the negative-log IC50 (pIC50) on Syk (setting [6]) was 7.23. For the same molecule, the inhibition at 5 µg/mL with PBMC cells is 20.9%.
